Target: human ADRB2 (Homo sapiens, UniProt P07550)
Test: Calcium mobilization assay
Format: cell-based
Conditions: in words; for ADRB2 antagonist activity: Figure 4B

Chain of human ADRB2 (P07550 whole entry): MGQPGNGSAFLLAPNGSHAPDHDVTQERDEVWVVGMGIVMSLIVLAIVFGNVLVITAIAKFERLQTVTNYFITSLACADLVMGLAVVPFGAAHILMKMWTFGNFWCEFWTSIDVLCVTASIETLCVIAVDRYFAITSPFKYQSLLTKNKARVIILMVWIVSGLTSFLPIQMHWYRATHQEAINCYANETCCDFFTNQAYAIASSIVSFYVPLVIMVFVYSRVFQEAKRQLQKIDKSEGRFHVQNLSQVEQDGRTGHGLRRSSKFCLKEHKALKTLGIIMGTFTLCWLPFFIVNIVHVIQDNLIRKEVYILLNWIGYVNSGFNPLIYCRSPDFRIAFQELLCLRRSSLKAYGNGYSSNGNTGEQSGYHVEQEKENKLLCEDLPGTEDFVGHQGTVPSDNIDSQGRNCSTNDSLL

Row | ADRB2 agonist activity (Figure 4A) | ADRB2 antagonist activity | Compound
1 | weak ADRB2 agonist activity |  | Cc1ccc(-n2c(C)ccc2C)c2c1CC(C)(C)O2 [Compound 5, 2,5-Dimethyl-1-(2,2,4-trimethyl-2,3-dihydro-1-benzofuran-7-yl)-1H-pyrrole]
2 |  | strong ADRB2 antagonist activity | COCCCNCC(O)COc1cccc2[nH]c(C)cc12 (stereo not drawn) [Compound 33, 1-[(3-Methoxypropyl)amino]-3-[(2-methyl-1H-indol-4-yl)oxy]-2-propanol]
3 |  | strong ADRB2 antagonist activity | Cc1cc2c(OCC(O)CNC(C)(C)C)cccc2[nH]1 (stereo not drawn) [Compound 8, 1-(tert-butylamino)-3-[(2-methyl-1H-indol-4-yl)oxy]-2-propanol, reference compound]

Reference: PMC3094066 (Molecular Systems Biology, 2011)
